From patent publication US8822500B2, “Tyrosine kinase inhibitors” (Chembridge Corporation, priority 2008, dated 2014)
Where two headings read alike, the source gives them in different places.

Tests used:
[1] = system: K299 lymphoma cells; test: Cellular assay, 3 day cell viability (WST-1); format: cell-based; conditions: 72 h, 3 days
[2] = target: ROS (Homo sapiens (Human), UniProt P08922); test: In vitro kinase activity assay (LANCE TR-FRET); format: biochemical
[3] = Metabolic stability, Phase I microsome reactions; format: in vitro ADME, mouse; conditions: 1.0 mg/ml microsomes; for microsomal CLint at 0.5 μM / half-life at 0.5 μM: mouse, liver microsomes, pH 7.4, Phase I only; for microsomal CLint at 0.5 μM: read-out: Mouse LM-P1 CL; for half-life at 0.5 μM: read-out: Mouse LM-P1 Half-life
[4] = in vitro; conditions: human, microsomes; for microsomal CLint at 0.5 μM: pH 7.4, Human LM-P1 CL (ul/min/mg); for half-life at 0.5 μM: pH 7.4, Human LM-P1 Half-life (min)
[5] = target: RET (Homo sapiens (Human), UniProt P07949); test: In vitro kinase activity assay (LANCE TR-FRET); format: biochemical
Sequence of RET (P07949 29-1114): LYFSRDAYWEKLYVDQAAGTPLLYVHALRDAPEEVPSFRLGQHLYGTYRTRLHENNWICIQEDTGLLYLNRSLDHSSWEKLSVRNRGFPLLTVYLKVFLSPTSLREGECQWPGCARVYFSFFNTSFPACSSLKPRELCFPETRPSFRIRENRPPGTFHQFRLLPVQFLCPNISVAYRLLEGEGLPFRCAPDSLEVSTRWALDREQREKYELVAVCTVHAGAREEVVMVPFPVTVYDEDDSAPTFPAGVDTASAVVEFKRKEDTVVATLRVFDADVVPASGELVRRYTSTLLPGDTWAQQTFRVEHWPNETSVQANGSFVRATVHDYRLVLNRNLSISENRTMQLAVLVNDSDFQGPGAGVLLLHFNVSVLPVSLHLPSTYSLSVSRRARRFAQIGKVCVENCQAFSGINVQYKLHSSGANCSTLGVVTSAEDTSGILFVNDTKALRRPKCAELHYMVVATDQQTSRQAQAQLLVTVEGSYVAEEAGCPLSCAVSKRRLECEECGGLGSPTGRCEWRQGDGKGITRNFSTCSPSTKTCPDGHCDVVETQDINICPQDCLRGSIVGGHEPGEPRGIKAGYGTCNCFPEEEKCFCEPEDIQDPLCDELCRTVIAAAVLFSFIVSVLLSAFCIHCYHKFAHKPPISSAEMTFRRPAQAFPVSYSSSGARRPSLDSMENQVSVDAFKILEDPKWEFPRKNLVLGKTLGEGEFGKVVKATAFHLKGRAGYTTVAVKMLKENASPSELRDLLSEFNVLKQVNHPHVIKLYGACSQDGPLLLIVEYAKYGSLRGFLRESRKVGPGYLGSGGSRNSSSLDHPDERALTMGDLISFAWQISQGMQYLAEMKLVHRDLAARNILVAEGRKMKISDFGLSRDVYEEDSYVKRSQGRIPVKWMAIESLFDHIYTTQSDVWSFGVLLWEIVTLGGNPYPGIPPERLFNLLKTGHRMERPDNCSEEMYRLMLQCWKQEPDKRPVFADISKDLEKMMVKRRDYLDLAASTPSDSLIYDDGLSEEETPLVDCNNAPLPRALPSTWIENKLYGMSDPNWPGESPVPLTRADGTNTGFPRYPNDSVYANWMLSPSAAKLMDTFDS

[6] = target: TrkA (Homo sapiens (Human), UniProt P04629); test: In vitro kinase activity assay (LANCE TR-FRET); format: biochemical;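 also: kinase reaction with poly-GT peptide substrate and ATP, phosphorylated product quantified by time-resolved FRET, eleven-point dose curves from 10^−11 to 10^−5 M in triplicate, DMSO as negative control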
Sequence of TrkA (P04629 33-796): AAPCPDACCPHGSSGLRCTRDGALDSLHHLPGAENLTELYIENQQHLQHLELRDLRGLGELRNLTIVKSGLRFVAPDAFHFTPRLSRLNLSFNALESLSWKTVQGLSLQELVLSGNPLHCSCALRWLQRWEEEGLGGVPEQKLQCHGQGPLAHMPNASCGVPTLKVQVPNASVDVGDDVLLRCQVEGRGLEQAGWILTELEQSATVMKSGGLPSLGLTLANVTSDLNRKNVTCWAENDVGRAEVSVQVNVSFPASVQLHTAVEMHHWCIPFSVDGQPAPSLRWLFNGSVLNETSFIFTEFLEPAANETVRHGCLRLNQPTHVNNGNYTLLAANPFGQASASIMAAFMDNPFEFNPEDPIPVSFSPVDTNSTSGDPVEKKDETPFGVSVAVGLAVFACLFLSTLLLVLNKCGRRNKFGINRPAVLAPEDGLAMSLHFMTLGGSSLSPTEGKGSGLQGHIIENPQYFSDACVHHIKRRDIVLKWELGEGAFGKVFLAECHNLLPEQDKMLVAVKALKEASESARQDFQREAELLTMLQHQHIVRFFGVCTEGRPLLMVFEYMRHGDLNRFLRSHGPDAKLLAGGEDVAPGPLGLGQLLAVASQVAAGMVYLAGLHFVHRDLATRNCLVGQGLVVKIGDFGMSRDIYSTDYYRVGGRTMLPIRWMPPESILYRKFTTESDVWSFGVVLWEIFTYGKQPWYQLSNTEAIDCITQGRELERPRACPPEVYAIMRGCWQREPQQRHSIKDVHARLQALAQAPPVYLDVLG

[7] = target: hERG (human ether-a-go-go related gene) potassium channel (Homo sapiens (Human), UniProt Q12809); test: hERG potassium channel current, automated patch clamp (PatchXpress 7000A);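 also: Four-point series of 0.3, 3, 10 and 30 µM, two cells recorded per concentration, 5 min exposure at each level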
[8] = system: SUDHL-1 lymphoma cells; test: Cellular assay, 3 day cell viability (WST-1); format: cell-based; conditions: Homo sapiens, SU-DHL-1, 72 h, 3 days, WST-1
[9] = system: U937 lymphoma cells; test: Cellular assay, 3 day cell viability (WST-1); format: cell-based; conditions: Homo sapiens, U-937, 72 h, 3 days, WST-1
[10] = target: cMET (Homo sapiens (Human), UniProt P08581); test: In vitro kinase activity assay (LANCE TR-FRET); format: biochemical
Sequence of cMET (P08581 25-1390): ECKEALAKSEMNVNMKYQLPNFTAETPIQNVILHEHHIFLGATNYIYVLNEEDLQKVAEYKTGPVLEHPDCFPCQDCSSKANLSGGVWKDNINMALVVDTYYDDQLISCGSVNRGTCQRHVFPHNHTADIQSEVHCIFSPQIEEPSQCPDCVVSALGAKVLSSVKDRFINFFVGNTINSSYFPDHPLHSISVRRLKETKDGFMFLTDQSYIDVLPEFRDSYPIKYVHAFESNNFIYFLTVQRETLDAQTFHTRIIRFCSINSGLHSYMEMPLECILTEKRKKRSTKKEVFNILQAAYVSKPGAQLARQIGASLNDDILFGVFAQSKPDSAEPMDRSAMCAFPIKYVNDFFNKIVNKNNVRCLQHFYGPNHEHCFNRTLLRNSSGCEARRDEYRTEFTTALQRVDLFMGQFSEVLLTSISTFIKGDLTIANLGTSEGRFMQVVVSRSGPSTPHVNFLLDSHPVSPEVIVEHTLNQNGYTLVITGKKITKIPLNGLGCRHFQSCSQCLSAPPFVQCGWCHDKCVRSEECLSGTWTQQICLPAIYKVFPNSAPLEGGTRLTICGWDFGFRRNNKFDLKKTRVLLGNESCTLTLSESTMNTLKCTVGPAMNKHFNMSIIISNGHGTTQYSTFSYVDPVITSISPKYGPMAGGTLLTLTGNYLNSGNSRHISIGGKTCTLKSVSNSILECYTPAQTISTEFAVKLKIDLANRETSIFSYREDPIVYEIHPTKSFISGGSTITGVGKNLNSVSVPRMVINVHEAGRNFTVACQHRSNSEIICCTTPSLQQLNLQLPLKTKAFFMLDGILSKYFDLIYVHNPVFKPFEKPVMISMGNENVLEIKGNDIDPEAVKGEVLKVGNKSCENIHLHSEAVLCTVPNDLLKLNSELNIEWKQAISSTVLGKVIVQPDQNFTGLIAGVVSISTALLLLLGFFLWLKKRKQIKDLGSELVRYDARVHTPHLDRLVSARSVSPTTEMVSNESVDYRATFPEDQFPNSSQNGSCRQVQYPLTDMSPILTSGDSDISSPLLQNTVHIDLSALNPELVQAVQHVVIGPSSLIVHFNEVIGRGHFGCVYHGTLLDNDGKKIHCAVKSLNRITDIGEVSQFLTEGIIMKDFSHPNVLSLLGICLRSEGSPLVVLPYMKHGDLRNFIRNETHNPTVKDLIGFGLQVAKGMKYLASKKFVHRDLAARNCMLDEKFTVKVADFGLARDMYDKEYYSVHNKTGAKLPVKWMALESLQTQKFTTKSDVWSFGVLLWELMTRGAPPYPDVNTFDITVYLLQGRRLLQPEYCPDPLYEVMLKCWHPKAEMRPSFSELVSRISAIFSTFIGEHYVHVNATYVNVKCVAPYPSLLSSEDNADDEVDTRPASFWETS

[11] = in vitro; conditions: rat, microsomes; for half-life at 0.5 μM: pH 7.4; for microsomal CLint at 0.5 μM: pH 7.4, Rat LM-P1 CL (ul/min/mg)
[12] = target: ALK (Homo sapiens (Human), UniProt Q9UM73); test: In vitro kinase activity assay (LANCE TR-FRET); format: biochemical;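 also: kinase reactions with ATP and a poly-GT peptide substrate, phosphorylated product read by time-resolved FRET, 11-point curve from 10^−11 to 10^−5 M, DMSO as negative control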
Sequence of ALK (Q9UM73 19-1620): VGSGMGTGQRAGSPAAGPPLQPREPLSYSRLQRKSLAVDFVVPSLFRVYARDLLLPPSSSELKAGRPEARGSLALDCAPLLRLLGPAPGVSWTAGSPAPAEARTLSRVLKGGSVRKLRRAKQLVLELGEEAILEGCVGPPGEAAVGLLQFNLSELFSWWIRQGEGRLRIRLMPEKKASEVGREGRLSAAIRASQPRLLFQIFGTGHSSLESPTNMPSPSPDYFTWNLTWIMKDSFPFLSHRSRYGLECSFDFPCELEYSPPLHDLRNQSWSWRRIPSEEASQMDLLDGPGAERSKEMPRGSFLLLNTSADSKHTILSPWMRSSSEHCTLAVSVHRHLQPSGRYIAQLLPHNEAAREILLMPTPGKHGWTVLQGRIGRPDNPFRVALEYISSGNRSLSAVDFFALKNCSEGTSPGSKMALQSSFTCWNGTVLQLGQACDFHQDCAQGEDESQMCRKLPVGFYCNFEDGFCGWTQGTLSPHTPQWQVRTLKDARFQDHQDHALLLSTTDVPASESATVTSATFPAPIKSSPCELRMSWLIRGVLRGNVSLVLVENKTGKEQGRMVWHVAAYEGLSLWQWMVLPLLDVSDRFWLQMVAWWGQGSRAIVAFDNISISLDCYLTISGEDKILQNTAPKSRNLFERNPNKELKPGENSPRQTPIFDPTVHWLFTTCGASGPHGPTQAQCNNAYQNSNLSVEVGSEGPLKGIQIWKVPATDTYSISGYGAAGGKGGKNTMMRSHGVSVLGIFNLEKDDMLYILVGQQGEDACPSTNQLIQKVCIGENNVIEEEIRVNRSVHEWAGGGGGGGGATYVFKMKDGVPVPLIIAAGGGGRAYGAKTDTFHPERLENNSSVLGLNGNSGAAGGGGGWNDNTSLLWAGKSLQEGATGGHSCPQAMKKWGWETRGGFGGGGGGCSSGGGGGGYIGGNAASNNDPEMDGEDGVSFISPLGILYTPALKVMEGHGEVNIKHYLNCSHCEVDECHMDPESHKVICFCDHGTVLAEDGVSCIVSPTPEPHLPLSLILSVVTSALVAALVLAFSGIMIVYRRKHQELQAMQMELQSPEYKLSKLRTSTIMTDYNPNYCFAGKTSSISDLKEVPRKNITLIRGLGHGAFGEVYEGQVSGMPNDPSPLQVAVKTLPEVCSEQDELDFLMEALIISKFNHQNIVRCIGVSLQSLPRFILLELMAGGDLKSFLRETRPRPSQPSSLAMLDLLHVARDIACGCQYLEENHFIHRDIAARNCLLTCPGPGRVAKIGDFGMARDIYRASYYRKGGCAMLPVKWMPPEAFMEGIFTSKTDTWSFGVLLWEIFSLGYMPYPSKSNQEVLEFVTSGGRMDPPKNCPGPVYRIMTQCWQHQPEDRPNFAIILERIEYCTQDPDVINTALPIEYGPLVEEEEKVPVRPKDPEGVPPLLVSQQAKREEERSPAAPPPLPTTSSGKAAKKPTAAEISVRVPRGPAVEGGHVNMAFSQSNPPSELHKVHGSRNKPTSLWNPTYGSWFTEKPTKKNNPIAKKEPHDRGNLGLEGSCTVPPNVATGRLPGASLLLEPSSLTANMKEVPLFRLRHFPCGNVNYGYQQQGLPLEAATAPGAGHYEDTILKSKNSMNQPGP

[13] = Caco-2 cell permeation study; format: in vitro ADME; conditions: human; for Papp A→B at 2 h, 10 μM: Caco-2, pH 6.5, 10 μM, apical pH 6.5, 2 h; for Papp B→A at 2 h, 10 μM: Caco-2, pH 7.4, 10 μM, basolateral pH 7.4, 2 h; for efflux ratio at 2 h, 10 μM: Caco-2, Caco-2;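 as to all read-outs here: Caco-2 monolayers grown for 21–28 days with integrity confirmed by TEER, apical buffer HBSS with MES, basolateral buffer HBSS with HEPES, compound levels quantified by LC/MS/MS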
[14] = system: Caco-2 cells; test: Caco-2 cell permeation study; format: in vitro ADME; conditions: for Papp (10−6 cm/sec) A to B / Papp (10−6 cm/sec) B to A: 10 μM; for Papp (10−6 cm/sec) A to B: apical pH 6.5, 2 h; for Papp (10−6 cm/sec) B to A: basolateral pH 7.4, 2 h; for Efflux Ratio: Caco-2;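 as to all read-outs here: Caco-2 monolayers grown for 21–28 days with integrity confirmed by TEER, apical buffer HBSS with MES, basolateral buffer HBSS with HEPES, compound levels quantified by LC/MS/MS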
[15] = Rat pharmacokinetics / bioavailability; format: in vivo

Row | SMILES | IC50 ([1]; read-out: K299 IC50) [nM] | IC50 ([2]; read-out: ROS (nM) IC50) [nM] | microsomal CLint at 0.5 μM [3] [µL/min/mg] | half-life at 0.5 μM [3] [min] | microsomal CLint at 0.5 μM [4] [µL/min/mg] | half-life at 0.5 μM [4] [min] | IC50 ([5]; read-out: RET (nM) IC50) [nM] | IC50 ([6]; read-out: TrKA IC50) [nM] | IC50 ([6]; read-out: TrkA (nM) IC50) [nM] | IC50 [7] [nM] | IC50 [10] [nM] | half-life at 0.5 μM [11] [min] | microsomal CLint at 0.5 μM [11] [µL/min/mg] | IC50 ([12]; read-out: ALK (nM) IC50) [nM] | IC50 ([12]; read-out: ALK IC50) [nM] | Papp A→B at 2 h, 10 μM [13] [×10⁻⁶ cm/s] | Papp B→A at 2 h, 10 μM [13] [×10⁻⁶ cm/s] | efflux ratio at 2 h, 10 μM [13] | IC50 ([2]; read-out: GTx-ROS IC50) [nM] | IC50 ([5]; read-out: GTx-RET IC50) [nM] | other results
1 | CC(Cc1cc(F)ccc1F)Nc1cc[nH]c(=O)c1-c1nc2cc3c(cc2[nH]1)C(=O)N(CCN(C)C)C3 (racemic) [Compound 18, 2-(4-(1-(2,5-Difluorophenyl)propan-2-ylamino)-2-oxo-1,2-dihydropyridin-3-yl)-6-(2-(dimethylamino)ethyl)-6,7-dihydroimidazo[4,5-f]isoindole-5(1H)-one] | 265 | 0.688 | 29.4 | 23.6 | < 5.8 | > 120 | 13.1 | 4 | 4.33 | 5420 | 1000 to 3000 | 20.6 | 33.3 | 9.16 | 9 |  |  |  |  |  | IC50 ([8]; read-out: SUDHL-1 IC50): 172 nM; IC50 ([9]; read-out: U937 IC50): > 3000 nM
2 | C[C@@H](Cc1c(F)c(F)cc(F)c1F)Nc1cc[nH]c(=O)c1-c1nc2cc3c(cc2[nH]1)C(=O)N(c1cccnc1)C3=O [Compound 12, (S)-2-(2-oxo-4-((1-(2,3,5,6-tetrafluorophenyl)propan-2-yl)amino)-1,2-dihydropyridin-3-yl)-6-(pyridin-3-yl)imidazo[4,5-f]isoindole-5,7(1H,6H)-dione] | > 10000 |  | < 5.8 | > 120 | < 5.8 | > 120 |  | 20 | 20.4 | > 3000 | > 10000 | > 120 | < 5.8 | 47.3 | 47 | < 0.2 | < 0.2 |  |  |  | 
3 | C[C@@H](Cc1c(F)c(F)cc(F)c1F)Nc1cc[nH]c(=O)c1-c1nc2cc3c(cc2[nH]1)C(O)N(c1cccnc1)C3=O (stereo partly drawn) [Compound 13, 7-Hydroxy-2-(2-oxo-4-4(((S)-1-(2,3,5,6-tetrafluorophenyl)propan-2-yl)amino)-1,2-dihydropyridin-3-yl)-6-(pyridin-3-yl)-6,7-dihydroimidazo[4,5-f]isoindol-5(1H)-one] | 787 |  | 7.89 | 87.8 | 8.77 | 79.1 |  | 6 |  |  | > 10000 | 37.8 | 18.4 |  |  | < 0.2 | 1.9 | > 9.5 |  |  | IC50 ([9]; read-out: U937 IC50): > 3000 nM
4 | COC1c2cc3nc(-c4c(N[C@@H](C)Cc5c(F)c(F)cc(F)c5F)cc[nH]c4=O)[nH]c3cc2C(=O)N1c1cccnc1 (stereo partly drawn) [Compound 14, 7-Methoxy-2-(2-oxo-4-(((S)-1-(2,3,5,6-tetrafluorophenyl)propan-2-yl)amino)-1,2-dihydropyridin-3-yl)-6-(pyridin-3-yl)-6,7-dihydroimidazo[4,5-f]isoindol-5(1H)-one] |  |  | < 5.8 | > 120 | < 5.8 | > 120 |  | 42 | 41.6 |  | > 10000 | 103 | 6.76 | 174 | 174 |  |  |  |  |  | 
5 | Cc1c2c(cc3[nH]c(-c4c(NC(C)Cc5c(F)c(F)cc(F)c5F)cc[nH]c4=O)nc13)C(=O)N(C1CCN(C)CC1)C2 (stereo not drawn) [Compound 24A, 8-Methyl-6-(1-methylpiperidin-4-yl)-2-(2-oxo-4-(1-(2,3,5,6-tetrafluorophenyl)propan-2-ylamino)-1,2-dihydropyridin-3-yl)-6,7-dihydroimidazo[4,5-f]isoindol-5(3H)-one] |  | 2.37 |  |  |  |  | 11.1 |  | 5.99 |  |  |  |  | 14.6 |  |  |  |  |  |  | 
6 | CC(Cc1cc(F)ccc1F)Nc1cc[nH]c(=O)c1-c1nc2cc3c(cc2[nH]1)CN(C)C3=O (stereo not drawn) [Compound 33, 2-(4-(1-(2,5-Difluorophenyl)propan-2-ylamino)-2-oxo-1,2-dihydropyridin-3-yl)-6-methyl-6,7-dihydroimidazo[4,5-f]isoindol-5(1H)-one] |  | 0.74 |  |  | 26.1 | 26.6 | 17.7 |  | 5.13 | > 10000 |  | 7.13 | 97.2 | 24.7 |  |  |  | 0.8 | 0.7 | 18 | IC50 ([1]; read-out: GTx-K299 IC50): 532 nM; Mouse LM-P1 CL ([3]; Phase I only, 0.5 μM): 12.82 µL/min/mg; Papp (10−6 cm/sec) A to B [14]: 1.7 10−6 cm/sec; Papp (10−6 cm/sec) B to A [14]: 1.4 10−6 cm/sec; Efflux Ratio [14]: 0.5; IC50 ([6]; read-out: GTx-TrKA IC50): 5 nM; IC50 ([8]; read-out: GTx-SUDHL-1 IC50): 867 nM; IC50 ([9]; read-out: GTx-U937 IC50): > 10000 nM; IC50 ([12]; read-out: GTx-ALK IC50): 25 nM
7 | CC(Cc1c(F)c(F)cc(F)c1F)Nc1cc[nH]c(=O)c1-c1nc2cc3c(cc2[nH]1)C(=O)N(C)C3=O (stereo not drawn) [Compound 41, 2-(4-(1-(2,3,5,6-Tetrafluorophenyl)propan-2-ylamino)-2-oxo-1,2-dihydropyridin-3-yl)-6-methylimidazo[4,5-f]isoindole-5,7(1H,6H)-dione] |  | 4.53 |  |  |  |  | > 10000 |  | > 10000 |  |  |  |  | > 10000 |  |  |  |  | 5 | > 10000 | IC50 ([6]; read-out: GTx-TrKA IC50): > 10000 nM; IC50 ([12]; read-out: GTx-ALK IC50): > 10000 nM
8 | CC(Cc1c(F)c(F)cc(F)c1F)Nc1cc[nH]c(=O)c1-c1nc2cc3c(cc2n1C)C(=O)N(C)C3 (stereo not drawn) [Compound 43a, Cis-1,6-Dimethyl-2(2-oxo-4-(1-(2,3,5,6-tetrafluorophenyl)propan-2-ylamino)-1,2-dihydropyridin-3-yl)-6,7-dihydroimidazo[4,5-J]isoindol-5(1H)-one] |  | 1200 |  |  |  |  | > 10000 |  | 6510 |  |  |  |  | > 10000 |  |  |  |  | 1120 | > 10000 | IC50 ([6]; read-out: GTx-TrKA IC50): 6510 nM; IC50 ([12]; read-out: GTx-ALK IC50): > 10000 nM
9 | CC(Cc1cc(F)ccc1F)Nc1cc[nH]c(=O)c1-c1nc2cc3c(cc2[nH]1)CNC3=O (stereo not drawn) [Compound 53] |  | 1.88 |  |  | 25.3 | 27.4 | 16.9 |  | 7.81 |  |  | 8.68 | 78 | 34.1 |  | 1.25 | 8.24 | 6.6 |  |  | IV_AUC0-1440 Rat 10 mpk ([15]; 10 mg/kg I.V.): 531 µg·min/mL; PO_AUC0-1440 Rat 10 mpk ([15]; 10 mg/kg P.O.): 2.13 µg·min/mL; bioavailability ([15]; male, Sprague-Dawley, plasma, po, 10 mg/kg P.O., read-out: Rat F %): 0.402%; Papp (10−6 cm/sec) A to B [14]: 0.76 10−6 cm/sec; Papp (10−6 cm/sec) B to A [14]: 7.41 10−6 cm/sec; Efflux Ratio [14]: 10.1
